Assay results from publication PMC6025957, “Epidermal LysM receptor ensures robust symbiotic signalling in Lotus japonicus” (eLife, 2018).

Tests used:
[1] = biological target: T1, NFR1 kinase domain (Lotus japonicus, UniProt Q70KR7); assay: radioactive kinase assay, autoradiogram; assay type: biochemical; conditions: labelled compound ([gamma-32P]ATP); 100 µM ATP, MnCl2, MgCl2, HEPES pH 7, room temperature; NFR5 kinase domain as acceptor
T1 construct: intracellular kinase domain, pET-32 Ek/LIC, E. coli Rosetta 2, tag cleaved with TEV
T1 sequence (Q70KR7 254-623 limits assumed): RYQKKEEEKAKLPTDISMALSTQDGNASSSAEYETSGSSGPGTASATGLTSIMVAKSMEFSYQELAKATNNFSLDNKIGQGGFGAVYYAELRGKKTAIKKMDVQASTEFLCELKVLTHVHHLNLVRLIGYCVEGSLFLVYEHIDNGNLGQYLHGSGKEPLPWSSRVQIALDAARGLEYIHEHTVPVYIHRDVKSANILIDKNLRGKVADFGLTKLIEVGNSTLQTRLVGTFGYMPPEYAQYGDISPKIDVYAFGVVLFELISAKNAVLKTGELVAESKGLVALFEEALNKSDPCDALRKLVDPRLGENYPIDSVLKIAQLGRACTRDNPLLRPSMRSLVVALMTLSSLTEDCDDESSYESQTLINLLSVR

[2] = biological target: T2, NFRe kinase domain (Lotus japonicus, UniProt A8WHB6); assay: radioactive kinase assay, autoradiogram; assay type: biochemical; conditions: labelled compound ([gamma-32P]ATP); 100 µM ATP, MnCl2, MgCl2, HEPES pH 7, room temperature; autophosphorylation, myelin basic protein or NFR5 kinase domain as acceptor
T2 construct: gene nfr1c

[3] = biological target: T3, AtCERK1 ectodomain (Arabidopsis thaliana, UniProt A8R7E6); assay: biolayer interferometry, steady-state; assay type: binding; conditions: labelled compound; biotinylated (GlcNAc)5 immobilised on streptavidin sensor, protein in solution; PBS pH 7.4, 500 mM NaCl, 0.01% Tween20
T3 construct: gene CERK1; ectodomain only (borders from reported crystal structure), gp67 signal peptide, C-terminal His6, Sf9 insect cells, glycosylated, ~35 kDa
T3 sequence (A8R7E6 24-232 limits assumed): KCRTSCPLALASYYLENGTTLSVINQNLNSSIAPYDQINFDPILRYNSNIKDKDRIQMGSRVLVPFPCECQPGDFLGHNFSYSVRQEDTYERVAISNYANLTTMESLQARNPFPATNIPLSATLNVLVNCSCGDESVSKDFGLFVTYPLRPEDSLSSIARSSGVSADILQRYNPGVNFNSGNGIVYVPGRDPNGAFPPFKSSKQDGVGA

T2 sequence (A8WHB6 entry or part of it): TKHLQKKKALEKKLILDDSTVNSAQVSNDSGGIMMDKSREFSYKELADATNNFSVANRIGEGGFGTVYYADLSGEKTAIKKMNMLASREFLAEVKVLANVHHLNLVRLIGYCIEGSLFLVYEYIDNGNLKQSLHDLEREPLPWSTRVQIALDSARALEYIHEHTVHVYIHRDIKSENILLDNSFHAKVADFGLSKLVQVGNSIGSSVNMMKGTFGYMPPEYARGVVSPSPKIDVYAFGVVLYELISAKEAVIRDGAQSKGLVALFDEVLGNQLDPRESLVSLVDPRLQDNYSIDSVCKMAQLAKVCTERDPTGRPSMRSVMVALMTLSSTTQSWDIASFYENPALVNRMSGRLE

Row | SMILES | radioactive kinase assay, autoradiogram [1] | radioactive kinase assay, autoradiogram [2] | Kd [3]
1 | Nc1ncnc2c1ncn2[C@@H]1O[C@H](COP(=O)(O)OP(=O)(O)OP(=O)(O)O)[C@@H](O)[C@H]1O [ATP] | NFR1 kinase serves as positive control for NFR5 kinase transphosphorylation | NFRe kinase transphosphorylated the myelin basic protein (MBP) substrate and autophosphorylated | –
2 | CC(=O)N[C@@H]1[C@@H](O)[C@H](O[C@@H]2O[C@H](CO)[C@@H](O[C@@H]3O[C@H](CO)[C@@H](O[C@@H]4O[C@H](CO)[C@@H](O[C@@H]5O[C@H](CO)[C@@H](O)[C@H](O)[C@H]5NC(C)=O)[C@H](O)[C@H]4NC(C)=O)[C@H](O)[C@H]3NC(C)=O)[C@H](O)[C@H]2NC(C)=O)[C@@H](CO)O[C@H]1O [CO5] | – | – | 59 µM
